Results reported in US20100008938A1, “SELF ASSEMBLING AMPHIPHILIC POLYMERS AS ANTIVIRAL AGENTS” (priority 2007, published 2010).

Legend:
[1] = Solubilization of dyes in aqueous polymer solution vs water, TLC spot comparison; settings: for concentration in 50 mg/ml polymer: 50 mg/ml aqueous C16-Polymer A (Example 1), approximate, from TLC spot intensity
[2] = system: ATCC VR-1520 (H2N1) Human influenza virus

Row | SMILES | concentration in 50 mg/ml polymer [1] | solubility ([1]; deionized water (unbuffered), water, thermodynamic from solid) | body weight loss ([2]; 7 days) | increase in survival time ([2]; mouse, in vivo) | concentration in H2O ([1]; deionized water, unbuffered, room temperature)
1 | O=C1OC2(c3cc(Cl)c(O)cc3Oc3cc(O)c(Cl)cc32)c2ccccc21 [Dichlorofluorescein, dichlorofluorescein] | approximately 5 mg/ml | ≥ 10 µg/mL |  |  | 
2 | COC1(C(=O)O)CC(O)C(N)C(C(O)C(O)CO)O1 (stereo not drawn) [positive control, neuraminic acid β-methyl glycoside] |  |  | −9.8% | 2.94 h | 
3 | Cc1ccccc1/N=N/c1ccc(/N=N/c2c(O)ccc3ccccc23)c(C)c1 [Sudan IV] | approximately 0.2 mg/ml |  |  |  | 0 ng/mL
